Measured values reported in patent US8946289B2, “Manassatin compounds and methods of making and using the same” (Duke University, priority 2008, dated 2015).
Where two headings read alike, the source gives them in different places.

Columns and labels:
interleukin-2 (IL-2) = test: Inhibition of interleukin-2 release in Jurkat T cells, ELISA; assay type: cell-based, human; conditions: Jurkat T cells stimulated with PMA and PHA, 18 h
Experimental: Human E6.1 Jurkat T cells were cultured in RPMI-1640 with 10% fetal bovine serum (FBS), 2 mM I-glutamine, and 1 mM Na-pyruvate. After serum starvation for 7 h, Jurkat cells were plated in 96 well culture plates at 1.25×10^5 cells/mL in RPMI-1640 (without phenol red) with 10% FBS. Cells were treated with phorbol 12-myristate 13-acetate (PMA, 1.25 ng/mL) and phytohemaglutinin (PHA, 0.25 μg/mL) to stimulate secretion of IL-2. Testing compound or DMSO vehicle was added to appropriate wells. […] Plates were then incubated for 18 h. Cell supernatants were collected (100 μL) and assayed for interleukin-2 (IL-2) by ELISA (Human IL-2 ELISA Kit, available from BD Biosciences, San Jose, Calif.). All test conditions were assayed in triplicate and verified with repeated experiments three times.

HIF-1 [1] = test: ODD-Luc assay (luciferase reporter) for HIF-1 inhibitory activity; assay type: cell-based, mouse; conditions: read-out: HIF-1 inhibitory activity IC50; 4T1-ODD-Luc cells, 240 μM CoCl2, compounds 24 h
Experimental: The HIF-1 inhibitory of compound 1, 18, and the anti-diol diastereomer 22 were assessed with the ODD-Luc assay (Li, F.; Sonveaux, P.; Rabbani, Z. N.; Liu, S.; Yan, B.; Huang, Q.; Vujaskovic, Z.; Dewhirst, M. W.; Li, C. Y. Mol. Cell 2007, 26, 63-74, which is incorporated by reference). 4T1-ODD-Luc cells, stably transfected with the oxygen-dependent-degradation (ODD) domain of HIF-1α and a firefly luciferase reporter, were seeded in the 24-well plate at a density of 10^5 cells/well. After 16-hour incubation, cells were treated with 240 μM of Cobalt (II) Chloride (Sigma-Aldrich, St. Louis, Mo., USA) and serially diluted compounds for 24 h. To measure the luciferase signals, luciferin (150 mg/mL) was added and the plates were imaged using the Xenogen IVIS imaging system and associated Living Image software (Xenogen, Alameda, Calif.). Luciferase expression/activity was detected and quantified as relative light units (RLUs). Results are means±SD, n=3.
To determine HIF-1 inhibitory activity of 31 and 33, a luciferase-reporter based assay was used as a primary screen. […] Luciferase signals were detected and quantified as relative light units (RLUs).

VEGF = test: HIF-1 regulated VEGF secretion, ELISA; assay type: cell-based, mouse; conditions: 4T1 cells, hypoxia 0.5% O2, 24 h
Text: Vascular endothelial growth factor (VEGF) is a gene that is highly involved in tumor progression as a pro-angiogenic factor.

HIF-1 [2] = conditions: T47D cells, 10 μM 1,10-phenanthroline, 16 h; cited from earlier work
HIF-1α = test: Western blot of nuclear extracts, HIF-1α expression in MDA-MB-231 cells; assay type: cell-based, human
Athymic Nude mouse = test: Non-tumored animal toxicity assay, single dose; assay type: in vivo; conditions: for Death Days / Survivors/Total at day 15: single dose
Experimental: All treatment was administered according to exact body weight. A single Athymic Nude mouse was given a single injection (IP) of 400 mg/kg; a second mouse received a dose of 200 mg/kg, and a third mouse received a single dose of 100 mg/kg. […] They were sacrificed if they lost more than 20% of their body weight or if there were other signs of significant toxicity. […] This process was repeated until a tolerated dose was found. This dose was then designated the maximum tolerated dose (MTD). The mice were allowed ad libitum feed and water. Injections were administered IP. Dose volumes were generally 0.1 mL/10 grams body weight but may be up to 0.2 mL/10 grams of body weight.

HIF-1α protein = test: Western blot of nuclear extracts, HIF-1α expression in 4T1 cells; assay type: cell-based, mouse
4T1 cells = conditions: 24 h, highest concentration examined 10 μM
Experimental: Like MTT (3-(4,5-d imethylthiazol-2-yl)-2,5-diphenyltetrazolium bromide, a tetrazole), MTS was reduced into a formazan product by living cells in the presence of an electron coupling reagent (phenazine methosulfate, PMS). The absorbance of the formazan was detected at 490 nm. […] Then cells were washed and incubated another three hours with cell medium containing MTS/PMS solution at 37° C. (21% O2, 5% CO2). Relative cell survival rate was determined on the O.D. values measured at 490 nm.

[3] = test system: 60 different human tumor cell lines; test: NCI-60 DTP Human Tumor Cell Line Screen; assay type: cell-based
Experimental: The NCI-60 DTP Human Tumor Cell Line Screen utilized 60 different human tumor cell lines, representing leukemia, melanoma, and cancers of the lung, colon, brain, ovary, breast, prostate, and kidney. The screening was a two-stage process.
The human tumor cell lines of the cancer screening panel were grown in RPMI 1640 medium containing 5% fetal bovine serum and 2 mM L-glutamine. For a typical screening experiment, cells were inoculated into 96 well microtiter plates in 100 μL at plating densities ranging from 5,000 to 40,000 cells/well depending on the doubling time of individual cell lines.
After 24 h, two plates of each cell line were fixed in situ with TCA, to represent a measurement of the cell population for each cell line at the time of drug addition (Tz). […] At the time of drug addition, an aliquot of frozen concentrate was thawed and diluted to twice the desired final maximum test concentration with complete medium containing 50 μg/mL gentamicin. Additional four, 10-fold, or ½ log serial dilutions were made to provide a total of five drug concentrations plus control. Aliquots of 100 μL of these different drug dilutions were added to the appropriate microtiter wells already containing 100 μL of medium, resulting in the required final drug concentrations.
For adherent cells, the assay was terminated by the addition of cold TCA. Cells were fixed in situ by the gentle addition of 50 μL of cold 50% (w/v) TCA (final concentration, 10% TCA) and incubated for 60 minutes at 4° C. The supernatant was discarded, and the plates were washed five times with tap water and air dried. Sulforhodamine B (SRB) solution (100 μL) at 0.4% (w/v) in 1% acetic acid was added to each well, and plates were incubated for 10 minutes at room temperature. […] Bound stain was subsequently solubilized with 10 mM trizma base, and the absorbance was read on an automated plate reader at a wavelength of 515 nm. […] Using the seven absorbance measurements [time zero, (Tz), control growth, (C), and test growth in the presence of drug at the five concentration levels (Ti)], the percentage growth was calculated at each of the drug concentrations levels. Percentage growth inhibition was calculated as: [(Ti−Tz)/(C−Tz)]×100 for concentrations for which Ti>/=Tz [(Ti−Tz)/Tz]×100 for concentrations for which Ti<Tz.
Three dose response parameters were calculated for each experimental agent: GI50, TGI, and LC50. […] The drug concentration resulting in total growth inhibition (TGI) was calculated from Ti=Tz. […] Values were calculated for each of these three parameters if the level of activity was reached; however, if the effect was not reached or is exceeded, the value for that parameter was expressed as greater or less than the maximum or minimum concentration tested.

[4] = single dose 10 μM, leukemia, melanoma, and ovarian cancer

SMILES: COc1ccc([C@H](O)[C@@H](C)Oc2ccc(C3OC(c4ccc(O[C@H](C)[C@@H](O)c5ccc(OC)c(OC)c5)c(OC)c4)[C@H](C)[C@H]3C)cc2OC)cc1OC (stereo partly drawn) [Compound 22]
- release of interleukin-2 (interleukin-2 (IL-2)): inhibited

SMILES: COc1ccc([C@@H](O)[C@@H](C)Oc2ccc(C3OC(c4ccc(O[C@H](C)[C@H](O)c5ccc(OC)c(OC)c5)c(OC)c4)[C@H](C)[C@H]3C)cc2OC)cc1OC (stereo partly drawn) [Compound 33]
- IC50 (HIF-1 [1]): 47 nM

SMILES: O=c1ccc2c(OCCCCc3ccccc3)c3ccoc3cc2o1 [Psora4, reference compound]
- release of interleukin-2 (interleukin-2 (IL-2)): inhibited

SMILES: COc1ccc([C@@H](O)[C@@H](C)Oc2ccc(C3OC(c4ccc(O[C@H](C)[C@H](O)c5ccc(OC)c(OC)c5)c(OC)c4)[C@H](C)[C@H]3C)cc2OC)cc1OC (stereo partly drawn) [manassantin A]
- concentration significantly inhibiting VEGF induced by hypoxia (VEGF): higher than 10 nM
- effect on iron chelator-induced HIF-1 activation (HIF-1 [2]): no significant effect
- HIF-1α nuclear expression induced by CoCl2 (HIF-1α): inhibited
- Death Days (Athymic Nude mouse; Group 4, 100.00 mg/kg/dose IP): 0
- Survivors/Total at day 15 (Athymic Nude mouse; Group 4, 100.00 mg/kg/dose IP): 0/1
- Death Days (Athymic Nude mouse; Group 11, 12.50 mg/kg/dose IP): 0
- Survivors/Total at day 15 (Athymic Nude mouse; Group 11, 12.50 mg/kg/dose IP): 0/1
- Death Days (Athymic Nude mouse; Group 12, 1.56 mg/kg/dose IP): none
- Survivors/Total at day 15 (Athymic Nude mouse; Group 12, 1.56 mg/kg/dose IP): 1/1
- Death Days (Athymic Nude mouse; Group 13, 3.13 mg/kg/dose IP): none
- Survivors/Total at day 15 (Athymic Nude mouse; Group 13, 3.13 mg/kg/dose IP): 1/1
- Death Days (Athymic Nude mouse; Group 14, 6.25 mg/kg/dose IP): none
- Survivors/Total at day 15 (Athymic Nude mouse; Group 14, 6.25 mg/kg/dose IP): 1/1
- toxicity (in words) (Athymic Nude mouse; levels of 6.25, 3.13, and 1.56 mg/kg/dose IP): non-toxic
- toxicity (in words) (Athymic Nude mouse; levels of 12.50 and 100.00 mg/kg/dose IP): resulted in death
- toxicity outcome at first dose levels (Athymic Nude mouse; single IP injection of 400, 200 and 100 mg/kg, one mouse each): all 3 mice had to be sacrificed
- Solubility (Group 4, 200.0 mg/mL in 100% DMSO): soluble, no
- Solubility (Group 11, 25.0 mg/mL in 100% DMSO): soluble, no
- Solubility (Group 12, 3.125 mg/mL in 100% DMSO): soluble, no
- Solubility (Group 13, 3.125 mg/mL in 100% DMSO): soluble, no
- Solubility (Group 14, 3.125 mg/mL in 100% DMSO): soluble, no
- HIF-1α expression induced by CoCl2 (HIF-1α protein; 4T1 cells, 240 μM CoCl2 24 h, manassantin A 100 nM): inhibited
- concentration significantly inhibiting hypoxia-induced nuclear expression of HIF-1α protein (HIF-1α protein; 4T1 cells, hypoxia 0.5% O2, 24 h): higher than 10 nM
- expression of HIF-1 (HIF-1α protein; at the concentration 100 nM): completely inhibited
- cell survival rate (4T1 cells): ~70%
- release of interleukin-2 (interleukin-2 (IL-2)): inhibited
- tumor cell growth, trial 1 ([3]; single dose 10 μM, 48 h, SRB): reduced the growth of all tumors tested
- lethality, trial 1 [3, 4]: more than 50%
- lethality, trial 2 [3, 4]: more than 50%
- tumor cell growth, trial 2 ([3]; trial 2, 48 h, SRB): reduced the growth of all tumors tested
